This assay relates to P388 leukemia ip, CD2F1 mice, survival T/C. The assay is described as follows: NCI In Vivo Anticancer Drug Screen. Data for tumor model P388 Leukemia (intraperitoneal) in CD2F1 (CDF1) mice. Particulars: endpoint: median survival time, higher = longer survival. Summed up:
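Mice carrying the transplanted tumor received test compound or vehicle. Survival was recorded in each group, and the value is the treated-group measurement divided by that of the vehicle-treated control group.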

The mark [1] stands for this setting: dose: 60.0 mg/kg/injection, schedule: Q01DX005 (ip), vehicle: saline with Tween-80.
[2] abbreviates: dose: 120.0 mg/kg/injection, schedule: Q01DX005 (ip), vehicle: saline with Tween-80.
Setting [3] is: dose: 240.0 mg/kg/injection, schedule: Q01DX005 (ip), vehicle: saline with Tween-80.
The mark [4] stands for this setting: dose: 50.0 mg/kg/injection, schedule: Q01DX005 (ip), vehicle: saline with Tween-80.
Setting [5] is: dose: 100.0 mg/kg/injection, schedule: Q01DX005 (ip), vehicle: saline with Tween-80.
[6] abbreviates: dose: 200.0 mg/kg/injection, schedule: Q01DX005 (ip), vehicle: saline with Tween-80.

The structures appear in SMILES notation. Where “and” joins values, the source holds several entries; their conditions need not be identical. Identical values can stand only once. Inconclusive results and toxic doses are left out.

On to `OCC1OC(ONc2ccccc2)C(O)C(O)C1O` (configuration not stated), for which the T/C is 94 % of control (dose: 60.0 mg/kg/injection, schedule: Q01DX005 (ip), vehicle: Klucel (hydroxypropylcellulose) (HPC)); 99 % of control (dose: 120.0 mg/kg/injection, schedule: Q01DX005 (ip), vehicle: Klucel (hydroxypropylcellulose) (HPC)); 100 % of control (dose: 240.0 mg/kg/injection, schedule: Q01DX005 (ip), vehicle: Klucel (hydroxypropylcellulose) (HPC)).

In the case of `Nc1nc(N)c(SC(F)(F)F)c(Cl)n1`, the T/C was 100 % of control under setting [1] and 103 % of control under setting [2].

Regarding `CCCCSP(Oc1ccccc1)SCCCC`, the T/C is 100 % of control (dose: 25.0 mg/kg/injection, schedule: Q04DX003 (ip), vehicle: Klucel (hydroxypropylcellulose) (HPC)); 108 % of control (dose: 50.0 mg/kg/injection, schedule: Q04DX003 (ip), vehicle: Klucel (hydroxypropylcellulose) (HPC)); 109 % of control (dose: 100.0 mg/kg/injection, schedule: Q04DX003 (ip), vehicle: Klucel (hydroxypropylcellulose) (HPC)).

Take `CNC(=O)OCc1c(COC(=O)NC)c(C)n(-c2ccc(Cl)cc2)c1C`: the T/C is, setting by setting: (dose: 12.5 mg/kg/injection, schedule: Q01DX009 (ip), vehicle: saline) 160 % of control; (dose: 25.0 mg/kg/injection, schedule: Q01DX009 (ip), vehicle: saline) 166 % of control.

On to `NC(=O)C1CCCN1C(=O)/C=C\c1ccccc1` (configuration not stated), for which the T/C under setting [1] is 109 % of control, the T/C under setting [2] was 112 % of control and the T/C under setting [3] was 101 % of control.

Take `COc1cc2c(cc1OC)C1C(=O)c3c(O)cc4c(c3OC1CO2)C=CC(C)(C)O4` (configuration not stated): the T/C was 98 % of control (dose: 12.5 mg/kg/injection, schedule: Q01DX005 (ip), vehicle: Klucel (hydroxypropylcellulose) (HPC)); 100 % of control (dose: 25.0 mg/kg/injection, schedule: Q01DX005 (ip), vehicle: Klucel (hydroxypropylcellulose) (HPC)); 107 % of control (dose: 50.0 mg/kg/injection, schedule: Q01DX005 (ip), vehicle: Klucel (hydroxypropylcellulose) (HPC)); 107 % of control (dose: 100.0 mg/kg/injection, schedule: Q01DX005 (ip), vehicle: Klucel (hydroxypropylcellulose) (HPC)); 111 % of control (dose: 200.0 mg/kg/injection, schedule: Q01DX005 (ip), vehicle: Klucel (hydroxypropylcellulose) (HPC)); 111 % of control (dose: 400.0 mg/kg/injection, schedule: Q01DX005 (ip), vehicle: Klucel (hydroxypropylcellulose) (HPC)).

With `COC(=O)[C@@]12OC[C@]34C([C@@H](O)C1O)[C@@]1(C)CC(=O)C(O)=C(C)C1C[C@H]3OC(=O)[C@H](OC(=O)c1ccc(Cl)cc1)[C@H]42` (some centres not stated), the T/C by setting is: (dose: 0.25 mg/kg/injection, schedule: Q01DX005 (ip), vehicle: DMSO) 112 % of control; (dose: 0.5 mg/kg/injection, schedule: Q01DX005 (ip), vehicle: DMSO) 116 % of control; (dose: 1.0 mg/kg/injection, schedule: Q01DX005 (ip), vehicle: DMSO) 113 % of control and 115 % of control; (dose: 2.0 mg/kg/injection, schedule: Q01DX005 (ip), vehicle: DMSO) 109 % of control and 118 % of control; (dose: 4.0 mg/kg/injection, schedule: Q01DX005 (ip), vehicle: DMSO) 109 % of control; (dose: 8.0 mg/kg/injection, schedule: Q01DX005 (ip), vehicle: DMSO) 110 % of control and 115 % of control. Where the note is “dose: 16.0 mg/kg/injection, schedule: Q01DX005 (ip), vehicle: DMSO”, the T/C is 112 % of control.

For the compound `CCOC(=O)CCS(=O)c1ccccc1` (configuration not stated), the T/C runs as follows: (dose: 50.0 mg/kg/injection, schedule: Q01DX009 (ip), vehicle: Klucel (hydroxypropylcellulose) (HPC)) 114 % of control; (dose: 100.0 mg/kg/injection, schedule: Q01DX009 (ip), vehicle: Klucel (hydroxypropylcellulose) (HPC)) 109 % of control; (dose: 200.0 mg/kg/injection, schedule: Q01DX009 (ip), vehicle: Klucel (hydroxypropylcellulose) (HPC)) 104 % of control.

In the case of `COc1cc(OC)c(C(c2cc3c(cc2O)OCO3)N2CCOCC2)c(OC)c1` (configuration not stated), the T/C was 118 % of control under setting [1] and 120 % of control under setting [2].

Consider `COC(=O)/C(=C(\C)C=O)N1C(=O)C(NC(=O)c2ccccc2)C1SSc1nc2ccccc2s1` (configuration not stated), for which the T/C is 108 % of control (dose: 100.0 mg/kg/injection, schedule: Q01DX001 (ip), vehicle: Klucel (hydroxypropylcellulose) (HPC)); 95 % of control (dose: 200.0 mg/kg/injection, schedule: Q01DX001 (ip), vehicle: Klucel (hydroxypropylcellulose) (HPC)); 112 % of control (dose: 400.0 mg/kg/injection, schedule: Q01DX001 (ip), vehicle: Klucel (hydroxypropylcellulose) (HPC)).

For the compound `CC(C)[CH2][Ge]([Cl])([Cl])[Cl]`, the T/C (dose: 0.78 mg/kg/injection, schedule: Q01DX009 (ip), vehicle: saline) was 103 % of control; the T/C (dose: 1.56 mg/kg/injection, schedule: Q01DX009 (ip), vehicle: saline) is 106 % of control; the T/C (dose: 3.12 mg/kg/injection, schedule: Q01DX009 (ip), vehicle: saline) is 94 % of control; the T/C (dose: 6.25 mg/kg/injection, schedule: Q01DX009 (ip), vehicle: saline) is 119 % of control.

On to `CN(CO)N=Nc1ccc(C(F)(F)F)cc1`, for which the T/C runs as follows: under setting [4], 96 % of control; under setting [5], 113 % of control; under setting [6], 113 % of control.

Take `O=C1c2ccccc2CN(C(=Nc2ccccc2)Nc2ccccc2)c2ccccc21`: the T/C was 90 % of control under setting [4], 91 % of control under setting [5] and 102 % of control under setting [6].

As to `O=C1CSC(c2cccc(Br)c2)N1c1nncs1` (configuration not stated), the T/C reads like this: under setting [1], 101 % of control; under setting [2], 97 % of control; under setting [3], 93 % of control.

As for `O=S(=O)(CCl)OCCCCOS(=O)(=O)CCl`, the T/C was 109 % of control (dose: 25.0 mg/kg/injection, schedule: Q04DX003 (ip), vehicle: saline sonified); 104 % of control (dose: 50.0 mg/kg/injection, schedule: Q04DX003 (ip), vehicle: saline sonified); 120 % of control (dose: 66.0 mg/kg/injection, schedule: Q01DX009 (ip), vehicle: saline); 118 % of control (dose: 100.0 mg/kg/injection, schedule: Q04DX003 (ip), vehicle: saline sonified); 150 % of control (dose: 150.0 mg/kg/injection, schedule: Q01DX009 (ip), vehicle: saline).

Consider `O=C1c2ccccc2C(=O)c2c(O)c(NCCO)cc(O)c21`, for which the T/C by setting is: (dose: 100.0 mg/kg/injection, schedule: Q04DX002 (ip), vehicle: Klucel (hydroxypropylcellulose) (HPC)) 92 % of control; (dose: 200.0 mg/kg/injection, schedule: Q04DX002 (ip), vehicle: Klucel (hydroxypropylcellulose) (HPC)) 101 % of control; (dose: 400.0 mg/kg/injection, schedule: Q04DX002 (ip), vehicle: Klucel (hydroxypropylcellulose) (HPC)) 93 % of control.

Consider `O=S1(=O)C=C(c2ccccc2)S(=O)(=O)C=C1c1ccccc1`, for which the T/C runs as follows: (dose: 100.0 mg/kg/injection, schedule: Q04DX003 (ip), vehicle: saline with Tween-80) 102 % of control; (dose: 200.0 mg/kg/injection, schedule: Q04DX003 (ip), vehicle: saline with Tween-80) 96 % of control.

As for `COc1cccc2c1C(=O)c1c(O)c3c(c(O)c1C2=O)C[C@@](O)(C(C)O)C[C@@H]3OC1CC(N2CCOCC2)C(O)C(C)O1` (some centres not stated), the T/C is, setting by setting: (dose: 25.0 micrograms/kg/injection, schedule: Q04DX003 (ip), vehicle: water) 101 % of control; (dose: 50.0 micrograms/kg/injection, schedule: Q04DX003 (ip), vehicle: water) 97 % of control; (dose: 100.0 micrograms/kg/injection, schedule: Q04DX003 (ip), vehicle: water) 100 % of control and 118 % of control.

For `O=C(CC(=O)c1ccccc1)c1ccccc1.[Tl]`, the T/C (dose: 6.25 mg/kg/injection, schedule: Q01DX009 (ip), vehicle: saline with Tween-80) is 100 % of control and the T/C (dose: 12.5 mg/kg/injection, schedule: Q01DX009 (ip), vehicle: saline with Tween-80) is 98 % of control.

As to `CC1(C)c2ccccc2-c2nc3ccccc3cc2C1O` (configuration not stated), the T/C (dose: 25.0 mg/kg/injection, schedule: Q01DX001 (ip), vehicle: saline) is 96 % of control; the T/C (dose: 50.0 mg/kg/injection, schedule: Q01DX001 (ip), vehicle: saline) was 103 % of control; the T/C (dose: 100.0 mg/kg/injection, schedule: Q01DX001 (ip), vehicle: saline) was 101 % of control; the T/C (dose: 200.0 mg/kg/injection, schedule: Q01DX001 (ip), vehicle: saline) was 103 % of control.

For the compound `Cc1ccc(N=NC2=C3Sc4ccccc4N=C2N(c2ccc(Br)cc2)C(=S)N3c2ccc(Cl)cc2)cc1`, the T/C was 102 % of control under setting [4], 90 % of control under setting [5] and 88 % of control under setting [6].

For the compound `OCC(Br)(Br)Br`, the T/C reads like this: (dose: 100.0 mg/kg/injection, schedule: Q01DX001 (ip), vehicle: saline with Tween-80) 100 % of control; (dose: 200.0 mg/kg/injection, schedule: Q01DX001 (ip), vehicle: saline with Tween-80) 98 % of control; (dose: 400.0 mg/kg/injection, schedule: Q01DX001 (ip), vehicle: saline with Tween-80) 100 % of control.

The values are drawn from PubChem BioAssay AID330 (DTP/NCI, 2004).
